Data taken from patent publication US20150105252A1, “SUBSTITUTED PYRAZOLES AS HERBICIDES” (E I DU PONT DE NEMOURS AND COMPANY, priority 2013, published 2015).

Key:
lambsquarters = assay: Test C postemergence; type: in vivo, Chenopodium album; conditions: for Plant response rating (scale of 0 to 100 where 0 is no effect and 100 is complete control), Lambsquarters: 31 g ai/ha, visually evaluated after 13 to 15 days; for Lambsquarters plant response rating / Plant response rating, Lambsquarters: postemergence; for Lambsquarters plant response rating: 62 g ai/ha, scale 0 to 100
Method in brief: (§1)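 Scores of 0 (no effect) to 100 (complete control) were assigned by eye after 13–15 days, comparing treated pots with controls. Soil-applied (preemergence) treatments went onto seeds in loam and sand; foliar (postemergence) treatments onto 1- to 4-leaf plants in peat medium.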

oat, wild = assay: Test C postemergence; type: in vivo, Avena fatua; conditions: for Plant response rating (scale of 0 to 100 where 0 is no effect and 100 is complete control), Oat, Wild: 31 g ai/ha, visually evaluated after 13 to 15 days; for Oat, Wild plant response rating / Plant response rating, Oat, Wild: postemergence; for Oat, Wild plant response rating: 62 g ai/ha, scale 0 to 100
Method in brief: as §1

nutsedge, yellow = assay: Test C postemergence; type: in vivo, Cyperus esculentus; conditions: for Plant response rating (scale of 0 to 100 where 0 is no effect and 100 is complete control), Nutsedge, Yellow: 31 g ai/ha, visually evaluated after 13 to 15 days; for Nutsedge, Yellow plant response rating / Plant response rating, Nutsedge, Yellow: postemergence; for Nutsedge, Yellow plant response rating: 62 g ai/ha, scale 0 to 100
Method in brief: as §1

barnyardgrass [1] = assay: Test B flood; type: in vivo, Echinochloa crus-galli; conditions: 250 g ai/ha, visual rating on 0 to 100 scale (0 no effect, 100 complete control), 13 to 15 days
Method in brief: (§2)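 2-leaf plants; pots flooded 3 cm over soil; compound added to paddy water, depth kept constant. Greenhouse 13–15 d. Visual rating vs controls, 0–100 scale (100 = complete control); dash = no result.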

johnsongrass = assay: Test C postemergence; type: in vivo, Sorghum halepense; conditions: for Plant response rating (scale of 0 to 100 where 0 is no effect and 100 is complete control), Johnsongrass: 31 g ai/ha, visually evaluated after 13 to 15 days; for Johnsongrass plant response rating / Plant response rating, Johnsongrass: postemergence; for Johnsongrass plant response rating: 62 g ai/ha, scale 0 to 100
Method in brief: as §1

foxtail, giant = assay: Test A preemergence; type: in vivo, Setaria faberii; conditions: preemergence
Method in brief: (§3)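 Greenhouse test in loam soil/sand blend; compounds formulated in non-phytotoxic solvent with surfactant, applied as preemergence directed soil spray or postemergence to plants 2–10 cm tall at one- to two-leaf stage. Injury rated visually versus untreated controls after approximately 10 days on a 0 (no effect) to 100 (complete control) scale.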

barnyardgrass [2] = assay: Test A postemergence; type: in vivo, Echinochloa crus-galli
Method in brief: as §3

pigweed = assay: Test C postemergence; type: in vivo, Amaranthus retroflexus; conditions: for Pigweed plant response rating / Plant response rating, Pigweed: postemergence; for Pigweed plant response rating: 62 g ai/ha, scale 0 to 100
Method in brief: as §1

kochia = assay: Test C postemergence; type: in vivo, Kochia scoparia; conditions: for Plant response rating (scale of 0 to 100 where 0 is no effect and 100 is complete control), Kochia: 31 g ai/ha, visually evaluated after 13 to 15 days; for Kochia plant response rating / Plant response rating, Kochia: postemergence; for Kochia plant response rating: 62 g ai/ha, scale 0 to 100
Method in brief: as §1

velvetleaf = assay: Test C postemergence; type: in vivo, Abutilon theophrasti; conditions: for Plant response rating, Velvetleaf / Velvetleaf plant response rating: postemergence; for Velvetleaf plant response rating: scale 0 to 100
Method in brief: as §1

ducksalad = assay: Test B flood; type: in vivo, Heteranthera limosa; conditions: 250 g ai/ha, visual rating on 0 to 100 scale (0 no effect, 100 complete control), 13 to 15 days
Method in brief: as §2

waterhemp = assay: Test C preemergence; type: in vivo, Amaranthus rudis
Method in brief: as §1

oilseed rape = assay: Test C postemergence; type: in vivo, Brassica napus; conditions: for Oilseed Rape plant response rating / Plant response rating, Oilseed Rape: postemergence; for Oilseed Rape plant response rating: 62 g ai/ha, scale 0 to 100
Method in brief: as §1

rice = assay: Test B flood; type: in vivo, Oryza sativa; conditions: 250 g ai/ha, visual rating on 0 to 100 scale (0 no effect, 100 complete control), 13 to 15 days
Method in brief: as §2

[3] = 250 g ai/ha, scale 0 to 100 (0 no effect, 100 complete control)
[4] = 125 g ai/ha, scale 0 to 100, 0 no effect, 100 complete control
[5] = 500 g ai/ha, visual injury after approx. 10 days, 0 to 100 scale (0 no effect, 100 complete control)
[6] = postemergence, 125 g ai/ha, about 10 days, visual rating on 0 to 100 scale (0 no effect, 100 complete control)
[7] = preemergence, 31 g ai/ha, visual rating, scale 0 to 100 (0 no effect, 100 complete control), 13 to 15 days
[8] = Postemergence, 31 g ai/ha, visually evaluated after 13 to 15 days

For `CCOc1cc(C(=O)NC(C)C)nn1Cc1ccnc(C(F)(F)F)c1` [Compound 188], the “Plant response rating (scale of 0 to 100 where 0 is no effect and 100 is complete control), Lambsquarters” value (lambsquarters; Postemergence) was 60, the “Lambsquarters plant response rating” value (lambsquarters) was 75 and the “Plant response rating, Lambsquarters” value (lambsquarters; [3]) was 95. For the same compound, the “Plant response rating, Lambsquarters” value (lambsquarters; [4]) was 90, the “Plant response rating (scale of 0 to 100 where 0 is no effect and 100 is complete control), Oat, Wild” value (oat, wild; Postemergence) was 15 and the “Oat, Wild plant response rating” value (oat, wild) was 10. For the same compound, the “Plant response rating, Oat, Wild” value (oat, wild; [3]) was 85, the “Plant response rating, Oat, Wild” value (oat, wild; [4]) was 60 and the “Plant response rating (scale of 0 to 100 where 0 is no effect and 100 is complete control), Nutsedge, Yellow” value (nutsedge, yellow; Postemergence) was 5. For the same compound, the “Nutsedge, Yellow plant response rating” value (nutsedge, yellow) was 35, the “Plant response rating, Nutsedge, Yellow” value (nutsedge, yellow; [3]) was 10 and the “Plant response rating, Nutsedge, Yellow” value (nutsedge, yellow; [4]) was 5. For the same compound, the “Plant response rating, Barnyardgrass” value (barnyardgrass [1]) was 75, the “Plant response rating (scale of 0 to 100 where 0 is no effect and 100 is complete control), Johnsongrass” value (johnsongrass; Postemergence) was 0 and the “Johnsongrass plant response rating” value (johnsongrass) was 0. The “Plant response rating, Johnsongrass” value (johnsongrass; [3]) was 65, the “Plant response rating, Johnsongrass” value (johnsongrass; [4]) was 50 and the “Foxtail, Giant plant response rating (0 to 100 scale)” value (foxtail, giant; 125 g ai/ha, visual injury approx. 10 days after treatment) was 100. The “Foxtail, Giant plant response rating” value (foxtail, giant; [5]) was 100, the “Barnyardgrass plant response rating” value (barnyardgrass [2]; Postemergence, 500 g ai/ha, 0 to 100 scale (0 no effect, 100 complete control)) was 90 and the “Barnyardgrass plant response rating” value (barnyardgrass [2]; [6]) was 90. For the same compound, the “Pigweed plant response rating” value (pigweed) was 75, the “Plant response rating, Pigweed” value (pigweed; [3]) was 85 and the “Plant response rating, Pigweed” value (pigweed; [4]) was 80. The “Plant response rating (scale of 0 to 100 where 0 is no effect and 100 is complete control), Kochia” value (kochia; Postemergence) was 90, the “Kochia plant response rating” value (kochia) was 90 and the “Plant response rating, Kochia” value (kochia; [3]) was 90. For the same compound, the “Plant response rating, Kochia” value (kochia; [4]) was 90, the “Plant response rating, Velvetleaf” value (velvetleaf; [3]) was 80 and the “Velvetleaf plant response rating” value (velvetleaf) was 60. For the same compound, the “Plant response rating, Ducksalad” value (ducksalad) was 90, the “Waterhemp plant response rating” value (waterhemp; [7]) was 100 and the “Waterhemp plant response rating” value (waterhemp; preemergence, 62 g ai/ha, scale 0 to 100 (0 no effect, 100 complete control), 13 to 15 days) was 100. The “Plant response rating, Waterhemp” value (waterhemp; preemergence, 125 g ai/ha, 13 to 15 days, scale 0 to 100, 0 = no effect, 100 = complete control) was 100, the “Waterhemp plant response rating” value (waterhemp; preemergence, 250 g ai/ha, scale 0 to 100, 0 is no effect, 100 is complete control) was 100 and the “Oilseed Rape plant response rating” value (oilseed rape) was 60. The “Plant response rating, Oilseed Rape” value (oilseed rape; [3]) was 90, the “Plant response rating, Oilseed Rape” value (oilseed rape; [4]) was 70 and the “Plant response rating, Rice” value (rice) was 60.
With `CCc1cc(C(=O)NOC(C)C)nn1Cc1ccnc(C(F)(F)F)c1` [Compound 101] the “Plant response rating (scale of 0 to 100), Lambsquarters” value (lambsquarters; Postemergence, 16 g ai/ha) was 50, the “Plant response rating (scale of 0 to 100 where 0 is no effect and 100 is complete control), Lambsquarters” value (lambsquarters; Postemergence) was 50 and the “Lambsquarters plant response rating” value (lambsquarters) was 65. The “Plant response rating, Lambsquarters” value (lambsquarters; [4]) was 75, the “Plant response rating (scale of 0 to 100), Oat, Wild” value (oat, wild; Postemergence, 16 g ai/ha) was 0 and the “Plant response rating (scale of 0 to 100 where 0 is no effect and 100 is complete control), Oat, Wild” value (oat, wild; Postemergence) was 0. The “Oat, Wild plant response rating” value (oat, wild) was 5, the “Plant response rating, Oat, Wild” value (oat, wild; [4]) was 10 and the “Plant response rating (scale of 0 to 100), Nutsedge, Yellow” value (nutsedge, yellow; Postemergence, 16 g ai/ha) was 5. For the same compound, the “Plant response rating (scale of 0 to 100 where 0 is no effect and 100 is complete control), Nutsedge, Yellow” value (nutsedge, yellow; Postemergence) was 5, the “Nutsedge, Yellow plant response rating” value (nutsedge, yellow) was 5 and the “Plant response rating, Nutsedge, Yellow” value (nutsedge, yellow; [4]) was 40. The “Plant response rating, Barnyardgrass” value (barnyardgrass [1]) was 0, the “Plant response rating (scale of 0 to 100), Johnsongrass” value (johnsongrass; Postemergence, 16 g ai/ha) was 0 and the “Plant response rating (scale of 0 to 100 where 0 is no effect and 100 is complete control), Johnsongrass” value (johnsongrass; Postemergence) was 5. The “Johnsongrass plant response rating” value (johnsongrass) was 5, the “Plant response rating, Johnsongrass” value (johnsongrass; [4]) was 5 and the “Foxtail, Giant plant response rating” value (foxtail, giant; 125 g ai/ha, visual injury, 0 to 100 scale, approx. 10 days) was 100. For the same compound, the “Foxtail, Giant plant response rating” value (foxtail, giant; [5]) was 100, the “Barnyardgrass plant response rating” value (barnyardgrass [2]; Postemergence, 500 g ai/ha, visual rating after approx. 10 days, 0 to 100 scale (0 no effect, 100 complete control)) was 90 and the “Barnyardgrass plant response rating” value (barnyardgrass [2]; [6]) was 80. For the same compound, the “Plant response rating (scale of 0 to 100), Pigweed” value (pigweed; Postemergence, 16 g ai/ha) was 20, the “Plant response rating (scale of 0 to 100 where 0 is no effect and 100 is complete control), Pigweed” value (pigweed; [8]) was 35 and the “Pigweed plant response rating” value (pigweed) was 45. For the same compound, the “Plant response rating, Pigweed” value (pigweed; [4]) was 75, the “Plant response rating (scale of 0 to 100), Kochia” value (kochia; Postemergence, 16 g ai/ha) was 40 and the “Plant response rating (scale of 0 to 100 where 0 is no effect and 100 is complete control), Kochia” value (kochia; Postemergence) was 60. The “Kochia plant response rating” value (kochia) was 65, the “Plant response rating, Kochia” value (kochia; [4]) was 65 and the “Plant response rating (scale of 0 to 100), Velvetleaf” value (velvetleaf; Postemergence, 16 g ai/ha) was 10. The “Plant response rating (scale of 0 to 100 where 0 is no effect and 100 is complete control), Velvetleaf” value (velvetleaf; [8]) was 15, the “Velvetleaf plant response rating” value (velvetleaf; 62 g ai/ha) was 25 and the “Plant response rating, Velvetleaf” value (velvetleaf; [4]) was 30. The “Plant response rating, Ducksalad” value (ducksalad) was 70, the “Plant response rating, Waterhemp” value (waterhemp; Preemergence, 16 g ai/ha, scale 0 to 100) was 85 and the “Waterhemp plant response rating” value (waterhemp; [7]) was 95. The “Plant response rating, Waterhemp” value (waterhemp; preemergence, 62 g ai/ha, 13 to 15 days, scale 0 to 100, 0 = no effect, 100 = complete control) was 100, the “Waterhemp plant response rating” value (waterhemp; preemergence, 125 g ai/ha, scale 0 to 100, 0 is no effect, 100 is complete control) was 100 and the “Plant response rating (scale of 0 to 100), Oilseed Rape” value (oilseed rape; Postemergence, 16 g ai/ha) was 5. The “Plant response rating (scale of 0 to 100 where 0 is no effect and 100 is complete control), Oilseed Rape” value (oilseed rape; [8]) was 5, the “Oilseed Rape plant response rating” value (oilseed rape) was 5 and the “Plant response rating, Oilseed Rape” value (oilseed rape; [4]) was 5. The “Plant response rating, Rice” value (rice) was 0.
